Data as given in US10517826B2, “Anthostema senegalense-based composition for use as an anti-AIDS drug” (LABORATOIRE MICHEL IDERNE, priority 2014, dated 2019).
Converted amounts (≈) assume the structure as drawn. Read-outs that look alike come from different tables or passages of the source.

What was measured:
[1] = system: type 2 virus (strain ROD); assay: in vitro anti-HIV test, median inhibitory concentration on HIV-2; assay type: cell-based; conditions: HIV-2 ROD Strain
Protocol: (§1) An apolar extract and a polar extract of Anthostema senegalense were prepared by extraction with dichloromethane and methanol, respectively, from dried stem bark of Anthostema senegalense.
(§2) The efficacy of these extracts against the HIV virus was tested in vitro by measuring the median inhibitory concentration (IC50) of these substances on the type 1 HIV virus (strain IIIB) and on the type 2 virus (strain ROD). Their selectivity index was also measured in each case.
(§3) In order to serve as a control, three known antiretroviral molecules used in the treatment of the infection with HIV: nevirapine, dideoxycitidine and dideoxyinosine were also tested under the same conditions for comparison.

[2] = system: type 1 HIV virus (strain IIIB); assay: in vitro anti-HIV test, median inhibitory concentration on HIV-1; assay type: cell-based; conditions: HIV-1 Strain IIIB
Protocol: as §1, §2, §3

IC50 ([1]; Human immunodeficiency virus 2, read-out: IC50)	IC50 ([2]; Human immunodeficiency virus 1, read-out: IC50)	Structure (SMILES)	IC50 [1]	IC50 [2]
–	–	Nc1ccn([C@H]2CC[C@@H](CO)O2)c(=O)n1 [Dideoxycitidine, dideoxycitidine]	0.30 µg/mL (≈ 1.42 µM)	0.29 µg/mL (≈ 1.37 µM)
–	–	O=c1[nH]cnc2c1ncn2[C@H]1CC[C@@H](CO)O1 [Dideoxyinosine, dideoxyinosine]	4.59 µg/mL (≈ 19.4 µM)	2.89 µg/mL (≈ 12.2 µM)
> 4 µg/mL	0.047 µg/mL (≈ 0.176 µM)	Cc1ccnc2c1NC(=O)c1cccnc1N2C1CC1 [Nevirapine, nevirapine]	–	–
